In ChEMBL document CHEMBL5576038, “Design of a novel long-acting dual GLP-1/GIP receptor agonist” (Bioorg Med Chem, 2024):
Calls of active or inactive are those of the source. The rule behind the calls is not given here. Where a SMILES comes first, the peptide text is derived from it. [ ]: non-standard residue; d: D form. The star is where a group is joined. X1 = N[C@@H](CCCCNC(=O)CC[C@H](NC(=O)CCCCCCCCCCCCCCCCCCC(=O)O)C(=O)O)C(=O)NCCCC[C@H](N)C(=O)N[C@@H](CCCCNC(=O)C*)C(=O)O; X4 = O=C(O)CCCCCCCCCCCCCCCCCCC(=O)NCCOCCOCC(=O)N[C@@H](CCC(=O)N[C@@H](CCC(=O)N[C@@H](CCCCNC(=O)C*)C(=O)O)C(=O)O)C(=O)O; X6 = N[C@@H](CCCCNC(=O)CC[C@H](NC(=O)CCCCCCCCCCCCCCCCC(=O)O)C(=O)O)C(=O)NCCCC[C@H](N)C(=O)N[C@@H](CCCCNC(=O)C*)C(=O)O; X8 = O=C(O)CCCCCCCCCCCCCCCCC(=O)N[C@@H](CCC(=O)NCCOCCOCC(=O)NCCOCCOCC(=O)N[C@@H](CCCCNC(=O)C*)C(=O)O)C(=O)O; Aib = CC(C)(N)C(=O)O

Tests used:
[1] = biological target: Glucagon-like peptide 1 receptor (Homo sapiens, UniProt P43220); assay: Agonist activity at human GLP-1R expressed in CHO cells assessed as increase in cAMP production incubated for 30 mins by Eu-cAMP tracer based microplate reader analysis; format: functional, cell-based
[2] = system: Mus musculus; assay: Glucose-lowering effect in male ICR mouse assessed as reduction in plasma glucose AUC (0 to 72 hrs) at 30 nmol/kg, sc pretreated for 71 hrs followed by […] administration and measured after 60 mins by oral glucose tolerance test; format: functional, organism-based
[3] = biological target: T1, Gastric inhibitory polypeptide receptor (Homo sapiens, UniProt P48546); assay: Agonist activity at human GIPR expressed in CHO cells assessed as increase in cAMP production incubated for 30 mins by Eu-cAMP tracer based microplate reader analysis; format: functional, cell-based
T1 sequence (P48546 whole entry): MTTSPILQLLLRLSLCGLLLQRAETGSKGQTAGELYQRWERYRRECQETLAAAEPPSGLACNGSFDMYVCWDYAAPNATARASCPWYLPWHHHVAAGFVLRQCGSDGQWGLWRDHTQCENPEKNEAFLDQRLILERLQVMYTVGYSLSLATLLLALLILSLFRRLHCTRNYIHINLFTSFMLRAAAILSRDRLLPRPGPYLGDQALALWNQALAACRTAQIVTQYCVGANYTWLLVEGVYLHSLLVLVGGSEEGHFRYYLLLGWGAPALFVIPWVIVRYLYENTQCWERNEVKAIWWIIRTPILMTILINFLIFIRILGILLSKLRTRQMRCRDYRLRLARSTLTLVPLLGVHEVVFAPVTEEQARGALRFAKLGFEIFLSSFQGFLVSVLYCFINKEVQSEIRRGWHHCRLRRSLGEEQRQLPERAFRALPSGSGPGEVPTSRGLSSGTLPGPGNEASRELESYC

Sequence of Glucagon-like peptide 1 receptor (P43220 whole entry): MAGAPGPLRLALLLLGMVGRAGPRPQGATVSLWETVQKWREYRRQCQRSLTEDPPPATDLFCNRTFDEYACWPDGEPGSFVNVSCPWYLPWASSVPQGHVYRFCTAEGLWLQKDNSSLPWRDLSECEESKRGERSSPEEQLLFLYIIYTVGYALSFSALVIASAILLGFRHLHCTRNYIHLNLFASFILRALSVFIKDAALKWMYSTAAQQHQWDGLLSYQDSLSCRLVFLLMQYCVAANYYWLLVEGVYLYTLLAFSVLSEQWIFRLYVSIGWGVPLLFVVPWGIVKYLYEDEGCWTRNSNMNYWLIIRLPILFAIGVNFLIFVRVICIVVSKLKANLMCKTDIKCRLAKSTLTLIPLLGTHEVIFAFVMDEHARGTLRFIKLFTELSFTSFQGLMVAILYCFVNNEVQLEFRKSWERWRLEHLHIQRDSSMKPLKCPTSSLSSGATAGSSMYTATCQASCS

| Structure (SMILES) | EC50 [1] | Activity [2] | EC50 [3] |
| --- | --- | --- | --- |
| CC(C)C[C@H](NC(=O)[C@H](CC(C)C)NC(=O)[C@H](Cc1c[nH]c2ccccc12)NC(=O)[C@H](CCC(N)=O)NC(=O)[C@@H](NC(=O)[C@H](Cc1ccccc1)NC(=O)[C@H](CC(C)C)NC(=O)[C@H](CCCCN)NC(=O)[C@H](C)NC(=O)[C@H](C)NC(=O)[C@H](CCC(N)=O)NC(=O)[C@H](CSCC(=O)NCCCC[C@H](NC(=O)[C@@H](N)CCCCNC(=O)[C@@H](N)CCCCNC(=O)CC[C@H](NC(=O)CCCCCCCCCCCCCCCCCCC(=O)O)C(=O)O)C(=O)O)NC(=O)[C@H](CCC(=O)O)NC(=O)[C@H](CC(C)C)NC(=O)[C@H](Cc1ccc(O)cc1)NC(=O)[C@H](Cc1ccc(O)cc1)NC(=O)[C@H](CO)NC(=O)[C@H](Cc1ccc(O)cc1)NC(=O)[C@H](CC(=O)O)NC(=O)[C@H](CO)NC(=O)[C@@H](NC(=O)[C@H](Cc1ccccc1)NC(=O)[C@@H](NC(=O)CNC(=O)[C@H](CCC(=O)O)NC(=O)C(C)(C)NC(=O)[C@@H](N)Cc1ccc(O)cc1)[C@@H](C)O)[C@@H](C)O)C(C)C)C(=O)N[C@@H](C)C(=O)NCC(=O)NCC(=O)N1CCC[C@H]1C(=O)N[C@@H](CO)C(=O)N[C@@H](CO)C(=O)NCC(=O)N[C@@H](C)C(=O)N1CCC[C@H]1C(=O)N1CCC[C@H]1C(=O)N1CCC[C@H]1C(=O)N[C@@H](CO)C(N)=O (H-Y[Aib]EGTFTSDYSYYLEC(X1)QAAKLFVQWLLAGGPSSGAPPPS-NH2) | 0.52 nM | Active | 0.012 nM |
| CC(C)C[C@H](NC(=O)[C@H](CC(C)C)NC(=O)[C@H](Cc1c[nH]c2ccccc12)NC(=O)[C@H](CCC(N)=O)NC(=O)[C@@H](NC(=O)[C@H](Cc1ccccc1)NC(=O)[C@H](CC(C)C)NC(=O)[C@H](CCCCN)NC(=O)[C@H](C)NC(=O)[C@H](C)NC(=O)[C@H](CCC(N)=O)NC(=O)[C@H](CCCCN)NC(=O)[C@H](CCC(=O)O)NC(=O)[C@H](CC(C)C)NC(=O)[C@H](CSCC(=O)NCCCC[C@H](NC(=O)CC[C@H](NC(=O)CC[C@H](NC(=O)COCCOCCNC(=O)CCCCCCCCCCCCCCCCCCC(=O)O)C(=O)O)C(=O)O)C(=O)O)NC(=O)[C@H](Cc1ccc(O)cc1)NC(=O)[C@H](CO)NC(=O)[C@H](Cc1ccc(O)cc1)NC(=O)[C@H](CC(=O)O)NC(=O)[C@H](CO)NC(=O)[C@@H](NC(=O)[C@H](Cc1ccccc1)NC(=O)[C@@H](NC(=O)CNC(=O)[C@H](CCC(=O)O)NC(=O)C(C)(C)NC(=O)[C@@H](N)Cc1ccc(O)cc1)[C@@H](C)O)[C@@H](C)O)C(C)C)C(=O)N[C@@H](C)C(=O)NCC(=O)NCC(=O)N1CCC[C@H]1C(=O)N[C@@H](CO)C(=O)N[C@@H](CO)C(=O)NCC(=O)N[C@@H](C)C(=O)N1CCC[C@H]1C(=O)N1CCC[C@H]1C(=O)N1CCC[C@H]1C(=O)N[C@@H](CO)C(N)=O (H-Y[Aib]EGTFTSDYSYC(X4)LEKQAAKLFVQWLLAGGPSSGAPPPS-NH2) | 0.25 nM | Active | 0.064 nM |
| CC(C)C[C@H](NC(=O)[C@H](CC(C)C)NC(=O)[C@H](Cc1c[nH]c2ccccc12)NC(=O)[C@H](CCC(N)=O)NC(=O)[C@@H](NC(=O)[C@H](Cc1ccccc1)NC(=O)[C@H](CC(C)C)NC(=O)[C@H](CSCC(=O)NCCCC[C@H](NC(=O)CC[C@H](NC(=O)CC[C@H](NC(=O)COCCOCCNC(=O)CCCCCCCCCCCCCCCCCCC(=O)O)C(=O)O)C(=O)O)C(=O)O)NC(=O)[C@H](C)NC(=O)[C@H](C)NC(=O)[C@H](CCC(N)=O)NC(=O)[C@H](CCCCN)NC(=O)[C@H](CCC(=O)O)NC(=O)[C@H](CC(C)C)NC(=O)[C@H](Cc1ccc(O)cc1)NC(=O)[C@H](Cc1ccc(O)cc1)NC(=O)[C@H](CO)NC(=O)[C@H](Cc1ccc(O)cc1)NC(=O)[C@H](CC(=O)O)NC(=O)[C@H](CO)NC(=O)[C@@H](NC(=O)[C@H](Cc1ccccc1)NC(=O)[C@@H](NC(=O)CNC(=O)[C@H](CCC(=O)O)NC(=O)C(C)(C)NC(=O)[C@@H](N)Cc1ccc(O)cc1)[C@@H](C)O)[C@@H](C)O)C(C)C)C(=O)N[C@@H](C)C(=O)NCC(=O)NCC(=O)N1CCC[C@H]1C(=O)N[C@@H](CO)C(=O)N[C@@H](CO)C(=O)NCC(=O)N[C@@H](C)C(=O)N1CCC[C@H]1C(=O)N1CCC[C@H]1C(=O)N1CCC[C@H]1C(=O)N[C@@H](CO)C(N)=O (H-Y[Aib]EGTFTSDYSYYLEKQAAC(X4)LFVQWLLAGGPSSGAPPPS-NH2) | 1.25 nM | Active | 0.73 nM |
| CC(C)C[C@H](NC(=O)[C@H](CC(C)C)NC(=O)[C@H](Cc1c[nH]c2ccccc12)NC(=O)[C@H](CCC(N)=O)NC(=O)[C@@H](NC(=O)[C@H](Cc1ccccc1)NC(=O)[C@H](CC(C)C)NC(=O)[C@H](CSCC(=O)NCCCC[C@H](NC(=O)[C@@H](N)CCCCNC(=O)[C@@H](N)CCCCNC(=O)CC[C@H](NC(=O)CCCCCCCCCCCCCCCCC(=O)O)C(=O)O)C(=O)O)NC(=O)[C@H](C)NC(=O)[C@H](C)NC(=O)[C@H](CCC(N)=O)NC(=O)[C@H](CCCCN)NC(=O)[C@H](CCC(=O)O)NC(=O)[C@H](CC(C)C)NC(=O)[C@H](Cc1ccc(O)cc1)NC(=O)[C@H](Cc1ccc(O)cc1)NC(=O)[C@H](CO)NC(=O)[C@H](Cc1ccc(O)cc1)NC(=O)[C@H](CC(=O)O)NC(=O)[C@H](CO)NC(=O)[C@@H](NC(=O)[C@H](Cc1ccccc1)NC(=O)[C@@H](NC(=O)CNC(=O)[C@H](CCC(=O)O)NC(=O)C(C)(C)NC(=O)[C@@H](N)Cc1ccc(O)cc1)[C@@H](C)O)[C@@H](C)O)C(C)C)C(=O)N[C@@H](C)C(=O)NCC(=O)NCC(=O)N1CCC[C@H]1C(=O)N[C@@H](CO)C(=O)N[C@@H](CO)C(=O)NCC(=O)N[C@@H](C)C(=O)N1CCC[C@H]1C(=O)N1CCC[C@H]1C(=O)N1CCC[C@H]1C(=O)N[C@@H](CO)C(N)=O (H-Y[Aib]EGTFTSDYSYYLEKQAAC(X6)LFVQWLLAGGPSSGAPPPS-NH2) | 1.26 nM | – | 19.2 nM |
| CC(C)C[C@H](NC(=O)[C@H](CC(C)C)NC(=O)[C@H](Cc1c[nH]c2ccccc12)NC(=O)[C@H](CCC(N)=O)NC(=O)[C@@H](NC(=O)[C@H](Cc1ccccc1)NC(=O)[C@H](CC(C)C)NC(=O)[C@H](CCCCN)NC(=O)[C@H](C)NC(=O)[C@H](C)NC(=O)[C@H](CCC(N)=O)NC(=O)[C@H](CCCCN)NC(=O)[C@H](CCC(=O)O)NC(=O)[C@H](CC(C)C)NC(=O)[C@H](CSCC(=O)NCCCC[C@H](NC(=O)COCCOCCNC(=O)COCCOCCNC(=O)CC[C@H](NC(=O)CCCCCCCCCCCCCCCCC(=O)O)C(=O)O)C(=O)O)NC(=O)[C@H](Cc1ccc(O)cc1)NC(=O)[C@H](CO)NC(=O)[C@H](Cc1ccc(O)cc1)NC(=O)[C@H](CC(=O)O)NC(=O)[C@H](CO)NC(=O)[C@@H](NC(=O)[C@H](Cc1ccccc1)NC(=O)[C@@H](NC(=O)CNC(=O)[C@H](CCC(=O)O)NC(=O)C(C)(C)NC(=O)[C@@H](N)Cc1ccc(O)cc1)[C@@H](C)O)[C@@H](C)O)C(C)C)C(=O)N[C@@H](C)C(=O)NCC(=O)NCC(=O)N1CCC[C@H]1C(=O)N[C@@H](CO)C(=O)N[C@@H](CO)C(=O)NCC(=O)N[C@@H](C)C(=O)N1CCC[C@H]1C(=O)N1CCC[C@H]1C(=O)N1CCC[C@H]1C(=O)N[C@@H](CO)C(N)=O (H-Y[Aib]EGTFTSDYSYC(X8)LEKQAAKLFVQWLLAGGPSSGAPPPS-NH2) | 1.75 nM | – | 1.31 nM |
